Measured values from paper PMC6356585 (Viruses, 2018).

Tests used:
ZIKV [1] = tested on: ZIKV; set-up: method as in ref 43 = [43]; settings: by inhibiting viral entry; cited from earlier work
ZIKV [2] = tested on: ZIKV; set-up: method as in ref 43 = [43]; settings: by inhibiting viral entry; cited from earlier work; remark: listed apart in the source
ZIKV SPH [3] = assay: Autophagy compound library screen, ZIKV SPH titer (TCID50) in C6/36 cells; format: cell-based, Zika virus; settings: Zika virus, C6/36; 10 µM compound, MOI 0.1, 96 h, TCID50; ± SEM, three independent trials; read-out: ZIKV SPH Relative Titer in C6/36 Cells
ZIKV SPH [4] = assay: 7-Ketocholesterol dose-response, ZIKV SPH titer in Vero cells; format: cell-based; settings: Zika virus, MOI 1, 24 h, 0–27 µM, TCID50, R^2 = 0.9078
ZIKV IbH = assay: Autophagy compound screen in Vero cells infected with ZIKV IbH; format: cell-based, Zika virus; settings: African-lineage ZIKV IbH, 10 µM
human rhinovirus = tested on: human rhinovirus; set-up: method as in ref 39 = [39]; settings: cited from earlier work
human papillomavirus = tested on: human papillomavirus; set-up: method as in ref 39 = [39]; settings: cited from earlier work
ZIKV SPH [5] = assay: qRT-PCR of ZIKV genomes in cells and supernatants; format: cell-based, Zika virus
C6/36 cells = format: cell-based, Ae. albopictus; settings: 10 µM compound, 96 h, CellTiter-Glo; ± SEM, three independent trials
[6] = tested on: autophagic vesicles in Vero cells; assay: Autophagy detection (CYTO-ID) in Vero cells; format: cell-based; settings: 10 µM compound, 24 h, CYTO-ID green MFI vs DMSO control
ZIKV SPH [7] = assay: ZIKV SPH titer in compound-treated human neurons; format: cell-based, Zika virus; settings: 10 µM, ZIKV SPH MOI 1.0, 4 days, TCID50
ZIKV SPH [8] = assay: 7-Ketocholesterol and ZIKV pre-incubation (virucidal effect); format: cell-based, Zika virus; settings: 200 µM 7-KC, 1 h, room temperature, then diluted to approx. 0.2 µM on Vero cells, MOI 0.1, 40 hpi
human rotavirus = tested on: human rotavirus; set-up: method as in ref 39 = [39]; settings: cited from earlier work
ZIKV SPH [9] = assay: Time-of-addition assay in Vero cells; format: cell-based, Zika virus; settings: for ZIKV titer, time-of-addition / Decrease of ZIKV titers, time-of-addition: Vero

Compound: C[C@H](CCCC(C)(C)O)[C@H]1CC[C@H]2[C@@H]3CC=C4C[C@@H](O)CC[C@]4(C)[C@H]3CC[C@]12C [25-hydroxycholesterol]
- ZIKV titers in vivo (ZIKV [1]): reduced ZIKV titers
- ZIKV titers in vitro (ZIKV [2]): reduced ZIKV titers

Compound: CC(C)CCC[C@@H](C)[C@H]1CC[C@H]2[C@@H]3C(=O)C=C4C[C@@H](O)CC[C@]4(C)[C@H]3CC[C@]12C [7-Ketocholesterol]
- activity at 10 µM (ZIKV SPH [3]): 9.8 ± 3.3%
- IC50 (ZIKV SPH [4]): 4.06 µM
- Reduction of ZIKV IbH (ZIKV IbH): more than 90 % of control
- ZIKV IbH titer in Vero cells compared to control (ZIKV IbH): reduced ZIKV IbH titers
- ZIKV IbH titer in Vero cells compared to control (ZIKV IbH; listed as 7-KC): dropped titers more than a log
- Activity against human rhinovirus (human rhinovirus): minor activity
- Activity against human papillomavirus (human papillomavirus): no activity
- Budding/release efficiency (genomes in supernatant vs cell associated genomes) (ZIKV SPH [5]; Vero cells, 10 µM 7-KC, 24 hpi): approximately 30 % of untreated cells
- Number of viral genome copies in the supernatant (ZIKV SPH [5]; Vero cells, 10 µM 7-KC, 24 hpi): reduced
- Levels of ZIKV RNA in infected cells (ZIKV SPH [5]; Vero cells, 10 µM 7-KC, total cellular RNA at 24 hpi): not significantly altered
- Specific infectivity: 1 in N genomes infectious (ZIKV SPH [5]; infectious titer vs genome copies in supernatant, Vero, 7-KC present, control 1 in 1200): ~9000 genomes
- C6/36 Viability (C6/36 cells): 36 ± 5.1% of untreated control
- Autophagy Activity Factor (AAF) [6]: 27.01
- ZIKV titer in human neurons (ZIKV SPH [7]): reduced ZIKV titer
- ZIKV titer after preincubation of virus stock with compound (virucidal effect) (ZIKV SPH [8]): did not reduce viral titers
- Activity against human rotavirus (human rotavirus): no activity
- ZIKV titer, time-of-addition (ZIKV SPH [9]; 10 µM 7-KC added 12 h after infection, 24 hpi): ZIKV inhibition continued
- ZIKV titer, time-of-addition (ZIKV SPH [9]; 10 µM 7-KC added 18 h after infection, 24 hpi): slight decrease in titer
- Decrease of ZIKV titers, time-of-addition (ZIKV SPH [9]; 10 µM 7-KC added at 2 hpi, MOI 0.1, 24 hpi): 90%
- Decrease of ZIKV titers, time-of-addition (ZIKV SPH [9]; 10 µM 7-KC added at 6 hpi, MOI 0.1, 24 hpi): 90%
- Decrease of ZIKV titers, time-of-addition (ZIKV SPH [9]; 10 µM 7-KC added at the time of infection, MOI 0.1, 24 hpi): 90%
- ZIKV titer, time-of-addition (ZIKV SPH [9]; 10 µM 7-KC, pre-treating cells 2 h before infection, MOI 0.1, 24 hpi): did not reduce viral titers
- Decrease in infectious virions (ZIKV SPH [9]; Vero cells, 10 µM 7-KC, 24 hpi): greater than 90%
